Experimental findings from patent US9283176B2, “Benzimidazole anthelmintic compositions” (Zoetis Services LLC, priority 2008, dated 2016) are described below.

The nature of data set [1]: Stability studies: total moxidectin and triclabendazole levels after storage. Format: physicochemical. As to conditions: in Composition F, 25° C. or 40° C.; for Stability of the active during storage (in words): entire 6 month storage period. As to the method: Stability studies were conducted to ensure that a composition according to the present invention was stable. Composition F of Example 3 was prepared according to the process described in Example 1 and stored at either ambient (25° C.) or 40° C. for a total period of 6 months. At the conclusion of each storage period shown in Table V below, samples were tested for total moxidectin and triclabendazole levels.

Data set [2] can be described thus: Triclabendazole solubility in various lactone solvents. It is filed as physicochemical. As to the method: Still further embodiments of anthelmintic compositions representative of the present invention are prepared according to the process described in Example 1 above, except that lactone solvents other than γ-hexalactone are employed. In particular, the compositions are prepared with one of the following lactone solvents: butyrolactone, δ-hexalactone, γ-dodecalactone, δ-nonalactone, δ-decalactone, γ-decalactone, and δ-dodecalactone.

Some results are limits rather than exact numbers.

Take `CO/N=C1\C[C@]2(C[C@@H]3C[C@@H](C/C=C(\C)C[C@@H](C)/C=C/C=C4\CO[C@@H]5[C@H](O)C(C)=C[C@@H](C(=O)O3)[C@]45O)O2)O[C@H](/C(C)=C/C(C)C)[C@H]1C` [Moxidectin]: the “Stability of the active during storage (in words)” value in data set [1] is “remained stable and active”.

Turning to `CSc1nc2cc(Cl)c(Oc3cccc(Cl)c3Cl)cc2[nH]1` [Triclabendazole, 5-chloro-6(2,3-dichlorophenoxy)-2-methylthio-1H-benzimidazole], the “Stability of the active during storage (in words)” value in data set [1] was “remained stable and active”. For the same molecule, the “Physical state of the active during storage (in words)” value in data set [1] (up to 6 months) was “remained in solution”. The “Solvency in lactone solvents (in words)” value in data set [2] (lactone solvents of Table VIII and similar lactones and combinations) was “surprisingly good solvency”. Besides, the “Triclabendazole Solubility (% w/w)” value in data set [2] (solvent γ-butyrolactone) is recorded as over 18.0 % w/w; in data set [2] (solvent γ-decalactone), 15.2 % w/w; in data set [2] (solvent γ-dodecalactone) it was 11.8 % w/w; in data set [2] (solvent γ-hexalactone), 16.8 % w/w; in data set [2] (solvent γ-nonalactone), 16.7 % w/w; in data set [2] (solvent δ-decalactone) it was 28.1 % w/w. Besides, in data set [2] (solvent δ-dodecalactone), the “Triclabendazole Solubility (% w/w)” value stood at 21.5 % w/w.
